Common to all, as to type: in vivo
In experiment [1] the test system is db/db mice. As to the kind of experiment: Fasting glycemia in db/db mice after 6 weeks of treatment. The note with it: for effect on fasting glycemia (in words): db/db mice, after 6 weeks of treatment, versus CONTROL; for Fasting glycemia after 6 weeks of treatment: male db/db mice, fasted 6 h, compositions in the diet, mean values ± SEM. The protocol:
(§1) The composition was also compared to metformin, one of the main pharmaceutical molecules prescribed for the treatment of type 2 diabetes.
(§2) Experiments were performed on db/db mice, a model mimicking the characteristics of type 2 diabetes in humans (Roesler W J et al., Mol Cell Biochem 1990; 92(2):99-106). These mice are insulin-resistant, hypertriglyceridemic, and glucose intolerant. They very quickly develop pre-diabetes, a type 2 diabetes and then NASH.
(§3) The experimental time for the trial was […] with a 1 week run-in followed by 6 weeks of treatment. The male mice were 6 weeks old at the start of treatment. The (1S,3R,4R,5R)-3-{[(2E)-3-(3,4-dihydroxyphenyl)-2-propenoyl]oxy}-1,4,5-trihydroxycyclohexanecarboxylic acid alone, the methyl (2S,3E,4S)-4-{2-[2-(3,4-dihydroxyphenyl)ethoxy]-2-oxoethyl}-3-ethylidene-2-(β-D-glucopyranosyloxy)-3,4-dihydro-2H-pyran-5-carboxylate alone, and the mixture of these two molecules in a ratio of 1/4.65 have been tested and compared with metformin. These compositions were directly integrated into the diet of rodents, thus ensuring large-scale use, with injections, for example, intravenous, being limited to a small number given their mode of administration.
(§4) After randomization by weight and fasting glycemia, the animals were divided into the following groups: • Control (n=15): CONTROL; • Metformin (n=12, 0.2% of the diet): MET; • (1S,3R,4R,5R)-3-{[(2E)-3-(3,4-dihydroxyphenyl)-2-propenoyl]oxy}-1,4,5-trihydroxycyclohexanecarboxylic acid (n=12, 0.026% of the diet): V63X35; • The methyl (2S,3E,4S)-4-{2-[2-(3,4-dihydroxyphenyl)ethoxy]-2-oxoethyl}-3-ethylidene-2-(β-D-glucopyranosyloxy)-3,4-dihydro-2H-pyran-5-carboxylate (n=11, 0.12% of diet): V63X54; • The (1S,3R,4R,5R)-3-{[(2E)-3-(3,4-dihydroxyphenyl)-2-propenoyl]oxy}-1,4,5-trihydroxycyclohexanecarboxylic acid+methyl (2S,3E,4S)-4-{2-[2-(3,4-dihydroxyphenyl)ethoxy]-2-oxoethyl}-3-ethylidene-2-(β-D-glucopyranosyloxy)-3,4-dihydro-2H-pyran-5-carboxylate (n=11, respectively 0.026% and 0.12% of the feed): V63,000.
(§5) Experimental evaluations performed on an empty stomach (6 h) after 6 weeks of treatment were in particular concerned with: • The measurement of weight; • Measuring glycemia; • Measuring of insulinemia; • Measuring of serum triglycerides.
The synergistic effect on fasting glycemia was evaluated according to the Colby SR method described in “Calculation of the synergistic and antagonistic responses of herbicide combinations” Weeds, 1967, 15:20-22. A factor>1 indicates the existence of a synergistic effect. A factor<1 indicates the existence of an antagonist.
V63X54 represents the percent change in glycemia for the V63X54 group compared to the CONTROL group.

Experiment [2] has as its system db/db mice. As to the kind of experiment: Fasting insulinemia in db/db mice after 6 weeks of treatment. The conditions noted are these: for Median values of insulinemia after 6 weeks of treatment: male db/db mice, fasted 6 h, compositions in the diet; for median insulinemia compared with CONTROL (in words): db/db mice, after 6 weeks of treatment. The protocol: as §1, §2
FIG. 1 illustrates the evolution of insulinemia and glycemia (glucose) over time in this model (Joost H G et al., Animal Models in Diabetes Research, Humana Press). As for humans, the rise in glycemia is initially accompanied by an increase in insulinemia (associated with insulin resistance), evidence of a pancreas still able to secrete insulin, then a decrease, reflecting functional degeneration of the pancreas, and thus progression of type 2 diabetes with the need for insulin therapy (Kobayashi K et al., Metabolism: Clinical and experimental 2,000; 49:22-31 Tao H et al Nat Med 2014; 20(11):1263-1269).
as §3, §4, §5

Experiment [3] relates to db/db mice. Nature of the experiment: Fasting serum triglycerides in db/db mice after 6 weeks of treatment. The procedure:
as §1, §2
as §3, with “administration. […]” for “administration.”

Values joined by “and” are separate entries in the source; they are usually repeats but may differ in a detail not shown here. Identical values can stand only once.

Regarding `CN(C)C(=N)N=C(N)N` [MET, metformin, reference compound], in the experiment on db/db mice [1], the “effect on fasting glycemia (in words)” value was “no effect”; the “Fasting glycemia after 6 weeks of treatment” value (“Fasting glycemia after 6 weeks” below) is 454 mg/dL and 454 ± 34 mg/dL. The “Median values of insulinemia after 6 weeks of treatment” value (“Median values of insulinemia” below) with db/db mice [2] is on record as 21.89 ng/mL. Also, the “reduction of blood triglyceride levels” value with db/db mice [3] (db/db mice, after 6 weeks of treatment, versus CONTROL) is reported as 35.6%. Further, the “Serum triglycerides after 6 weeks of treatment” value in the experiment with db/db mice [3] (male db/db mice, fasted 6 h, compositions in the diet, mean values ± SEM) is on record as 132.6 ± 7.4 mg/dL.

Take `O=C(/C=C/c1ccc(O)c(O)c1)O[C@@H]1C[C@](O)(C(=O)O)C[C@@H](O)[C@H]1O` [V63X35, (1S,3R,4R,5R)-3-{[(2E)-3-(3,4-dihydroxyphenyl)-2-propenoyl]oxy}-1,4,5-trihydroxycyclohexanecarboxylic acid]: in the experiment with db/db mice [1], the “effect on fasting glycemia (in words)” value is given as “no effect” and the “Fasting glycemia after 6 weeks” value worked out at 454 ± 34 mg/dL. In addition, in the experiment on db/db mice [2], the “median insulinemia compared with CONTROL (in words)” value is “no difference” and the “Median values of insulinemia” value worked out at 22.39 ng/mL.

Take `C/C=C1/[C@H](O[C@@H]2O[C@H](CO)[C@@H](O)[C@H](O)[C@H]2O)OC=C(C(=O)OC)[C@H]1CC(=O)OCCc1ccc(O)c(O)c1` [V63X54, methyl (2S,3E,4S)-4-{2-[2-(3,4-dihydroxyphenyl)ethoxy]-2-oxoethyl}-3-ethylidene-2-(β-D-glucopyranosyloxy)-3,4-dihydro-2H-pyran-5-carboxylate]: in the experiment on db/db mice [1], the “effect on fasting glycemia (in words)” value was “no effect” and the “Fasting glycemia after 6 weeks” value is given as 432 ± 27 mg/dL. In the experiment on db/db mice [2], the “median insulinemia compared with CONTROL (in words)” value was “no difference” and the “Median values of insulinemia” value is 25.44 ng/mL.

Values taken from patent US11191744B2, “Pharmaceutical active ingredient and use thereof, in particular for the prevention and treatment of metabolic disorders in humans and animals” (VALBIOTIS, priority 2017, dated 2021).
